From patent publication US12304920B2, “Platinum complex, its preparation and therapeutic use” (CITY UNIVERSITY OF HONG KONG, priority 2020, dated 2025)

How the values were obtained:
[1] = test system: Human ovarian A2780 cells; assay: MTT cytotoxicity test, A2780; type: cell-based; details: 72 h, medium with 1% DMF (no DMF for 3a and 3b)
Method: (§1) Human ovarian A2780 and cisplatin-resistant A2780cisR cells were maintained in Roswell Park […] (RPMI) 1640 medium supported with 10% FBS, 2 mM L-glutamine, and 100 unit/mL penicillin/streptomycin. Human lung carcinoma A549 cells, cisplatin-resistant A549cisR cells, and human breast MCF-7 cells were cultured in Dulbecco's Modified Eagle Medium (DMEM) with 10% FBS and 100 units penicillin/streptomycin.
(§2) The viability of cancer cells exposed to the compounds was evaluated by means of MTT assay. Cells were seeded in 96-well plates at a density of 3,000 cells per well and incubated until the cell confluency reached 50%. Then, the medium was removed and replaced with fresh medium containing different concentrations of complexes with 1% DMF. For complex 3a and 3b with A2780, A2780CisR, A549 and A549CisR cells, the medium used for replacement contains no DMF. After 72 h, the medium was changed to serum-free medium containing 1 mg/mL MTT. After 2 h additional incubation, the medium was removed, and DMSO (200 μL) was delivered to each well to dissolve the formed purple formazan. The absorbance at 570 nm and 730 nm of each well was measured using a microplate reader (BioTek PowerWave XS).

[2] = test system: cisplatin-resistant A2780cisR cells; assay: MTT cytotoxicity test, A2780cisR; type: cell-based, Human; details: 72 h, medium with 1% DMF (no DMF for 3a and 3b)
Method: as §1, §2

[3] = test system: Human lung carcinoma A549 cells; assay: MTT cytotoxicity test, A549; type: cell-based; details: 72 h, medium with 1% DMF (no DMF for 3a and 3b)
Method: as §1, §2

human breast MCF-7 cells = assay: MTT cytotoxicity test, MCF-7; type: cell-based; details: 72 h, medium with 1% DMF
Method: as §1, §2

[4] = test system: cisplatin-resistant A549cisR cells; assay: MTT cytotoxicity test, A549cisR; type: cell-based, Human; details: 72 h, medium with 1% DMF (no DMF for 3a and 3b)
Method: as §1, §2

t-[Pt(acetato)2(C18H12Cl3P)2] [Complex 2c]
IC50 [1]: 4 ± 1 µM | IC50 [2]: 4 ± 1 µM | IC50 [3]: 24 ± 7 µM | IC50 (human breast MCF-7 cells): 18 ± 2 µM

t-[Pt(phthalato)2(PPh3)2] [Complex 1c]
IC50 [1]: 18 ± 3 µM | IC50 [2]: 10 ± 2 µM | IC50 [3]: 7 ± 1 µM | IC50 [4]: 7 ± 2 µM

t-[Pt(acetato)2(C17H14NP)2] [Complex 2e]
IC50 [1]: > 9.4 µM | IC50 [2]: > 9.4 µM | IC50 [3]: > 11.1 µM | IC50 (human breast MCF-7 cells): > 9.4 µM

t-[Pt(succinato)2(PPh3)2] [Complex 1b]
IC50 [1]: 15 ± 1 µM | IC50 [2]: 13 ± 1 µM | IC50 [3]: 5.3 ± 0.6 µM | IC50 [4]: 8 ± 5 µM

t-[Pt(acetato)2(PPh3)2] [Complex 1a]
IC50 [1]: 4.3 ± 0.6 µM | IC50 [2]: 3.3 ± 0.8 µM | IC50 [3]: 3.3 ± 0.6 µM | IC50 [4]: 5 ± 1 µM | IC50 (human breast MCF-7 cells): 10 ± 1 µM

t-[Pt(succinato)(benzoato)(PPh3)2] [Complex 1e]
IC50 [1]: 8 ± 4 µM | IC50 [2]: 7.2 ± 0.2 µM | IC50 [3]: 5 ± 0.8 µM | IC50 [4]: 5 ± 2 µM

[Pt(C26H24P2)2]Cl2 [Complex 3a]
IC50 [1]: 12 ± 3 µM | IC50 [2]: 5 ± 1 µM | IC50 [3]: 3.6 ± 0.2 µM | IC50 [4]: 1.3 ± 0.1 µM | IC50 (human breast MCF-7 cells): 7 ± 1 µM

[Pt(C54H52P2)]Cl2 [Complex 3b]
IC50 [1]: 0.23 ± 0.09 µM | IC50 [2]: 2.6 ± 0.6 µM | IC50 [3]: 0.48 ± 0.02 µM | IC50 [4]: 0.07 ± 0.01 µM | IC50 (human breast MCF-7 cells): 0.2 ± 0.01 µM

N.N.[Cl][Pt][Cl] [cisplatin, reference compound]
IC50 [1]: 2.1 ± 0.6 µM | IC50 [2]: 23 ± 6 µM | IC50 [3]: 2 ± 0.1 µM | IC50 [4]: 12 ± 1 µM | IC50 (human breast MCF-7 cells): 18 ± 3 µM

t-[Pt(acetato)2(C9H17P)2] [Complex 2a]
IC50 [1]: 8 ± 1 µM | IC50 [2]: 7 ± 2 µM | IC50 [3]: 28 ± 3 µM | IC50 (human breast MCF-7 cells): 7 ± 1 µM

t-[Pt(acetato)2(C18H21P)2] [Complex 2d]
IC50 [1]: > 2.4 µM | IC50 [2]: > 2.4 µM | IC50 [3]: > 2.7 µM | IC50 (human breast MCF-7 cells): > 2.4 µM

t-[Pt(acetato)2(C21H21P)2] [Complex 2b]
IC50 [1]: 4 ± 1 µM | IC50 [2]: 4 ± 1 µM | IC50 [3]: 6.1 ± 0.3 µM | IC50 (human breast MCF-7 cells): 4 ± 0.3 µM

t-[Pt(acetato)(benzoato)(PPh3)2] [Complex 1d]
IC50 [1]: 4.9 ± 0.6 µM | IC50 [2]: 3.1 ± 0.2 µM | IC50 [3]: 5 ± 3 µM | IC50 [4]: 5 ± 1 µM
